# According to article PMC8388771, “Cationic Peptidomimetic Amphiphiles Having a N-Aryl- or N-Naphthyl-1,2,3-Triazole Core Structure Targeting Clostridioides (Clostridium) difficile: Synthesis, Antibacterial Evaluation, and an In Vivo C. difficile Infection Model” (Antibiotics, 2021):
# Key:
# C. difficile ATCC 700057 = assay: Primary MIC assay, C. difficile ATCC 700057; format: cell-based, Clostridioides difficile; conditions: Clostridioides difficile, ATCC700057; Table 1; read-out: MIC C. difficile ATCC 700057
# Method: (§1) The N-arytriazole and N-naphthyltriazole peptidomimetics were subjected to antimicrobial screening. […] Vancomycin, colistin, fluconazole, and tamoxifen were used as positive controls (see Table 1 for details).
# (§2) Primary screening (Gram-positive bacteria). Primary MIC assays were performed as described by the Clinical and Laboratory Standards Institute for aerobic and anaerobic bacteria. MIC values for vancomycin were within acceptable QC ranges.
# C. difficile 132 (RT027) = assay: Primary MIC assay, C. difficile 132 (RT027); format: cell-based, Clostridioides difficile; conditions: Clostridioides difficile; Table 1; read-out: MIC C. difficile 132 (RT027)
# Method: as §1, §2
# S. aureus ATCC 29213 = assay: Primary MIC assay, S. aureus ATCC 29213; format: cell-based; conditions: Staphylococcus aureus, ATCC29213; Table 1; read-out: MIC S. aureus ATCC 29213
# Method: as §1, §2
# S. aureus NCTC 10442 = assay: Primary MIC assay, S. aureus NCTC 10442 (MRSA); format: cell-based; conditions: Staphylococcus aureus; Table 1; MRSA; read-out: MIC S. aureus NCTC 10442
# Method: as §1, §2
# E. faecalis ATCC 29212 = assay: Primary MIC assay, E. faecalis ATCC 29212; format: cell-based, Enterococcus faecalis; conditions: Enterococcus faecalis, ATCC29212; Table 1; read-out: MIC E. faecalis ATCC 29212
# Method: as §1, §2
# S. pneumoniae ATCC 49619 = assay: Primary MIC assay, S. pneumoniae ATCC 49619; format: cell-based, Streptococcus pneumoniae; conditions: Streptococcus pneumoniae, ATCC49619; Table 1; read-out: MIC S. pneumoniae ATCC 49619
# Method: as §1, §2
# E. coli ATCC 25922 [1] = assay: Primary MIC assay, E. coli ATCC 25922; format: cell-based; conditions: Escherichia coli, ATCC25922; Table 1; read-out: MIC E. coli ATCC 25922
# [2] = Cytotoxicity (CC50) assay by CO-ADD; format: cell-based, human; conditions: human, HEK293 cells (ATCC CRL-1573); Table 1; cytotoxicity on HEK293 cells, tested at ≤32 µg/mL
# Text: as §1
# (§3) Secondary screening (MRSA and Gram-negative bacteria) and cytotoxicity assay–performed by the Community for Open Antimicrobial Drug Discovery (CO-ADD). Samples were provided to CO-ADD [29] for antimicrobial screening by whole cell growth inhibition assays.
# Cytotoxicity Assay. These were performed as described previously.
# human erythrocytes = assay: Hemolysis assay, HC50 determination; format: cell-based
# Method: Hemolysis assay (human erythrocytes)–HC50 determination. These were performed as described previously.
# S. aureus ATCC 43300 = assay: CO-ADD MIC assay, S. aureus ATCC 43300 (MRSA); format: cell-based; conditions: Staphylococcus aureus, Table S1; MRSA; CO-ADD; read-out: MIC S. aureus ATCC 43300
# Text: as §1, §3
# (§4) Bacterial Inhibition–MIC Assay. These were performed as described previously.
# P. aeruginosa ATCC 27853 = assay: CO-ADD MIC assay, P. aeruginosa ATCC 27853; format: cell-based; conditions: Pseudomonas aeruginosa, ATCC27853, Table S1
# Text: as §1, §3, §4
# [3] = system: K. pneumoniae ATCC 700603; assay: CO-ADD MIC assay, K. pneumoniae ATCC 700603; format: cell-based; conditions: Klebsiella pneumoniae, ATCC700603, Table S1, multi-drug resistant
# Text: as §1, §3, §4
# A. baumannii ATCC 19606 = assay: CO-ADD MIC assay, A. baumannii ATCC 19606; format: cell-based; conditions: Acinetobacter baumannii, ATCC19606, Table S1
# Text: as §1, §3, §4
# E. coli ATCC 25922 [4] = assay: CO-ADD MIC assay, E. coli ATCC 25922; format: cell-based; conditions: Escherichia coli, ATCC25922, Table S1
# Text: as §1, §3, §4
# C. albicans ATCC 90028 = assay: CO-ADD MIC assay, C. albicans ATCC 90028; format: cell-based; conditions: Candida albicans, ATCC90028, Table S1
# Text: as §1, §3
# [5] = system: Cryptococcus neoformans var. grubii ATCC 208821; assay: CO-ADD MIC assay, C. neoformans var. grubii ATCC 208821; format: cell-based; conditions: for MIC: Cryptococcus neoformans, ATCC208821, Table S1
# Text: as §1, §3
# [6] = Table 1, lysis of human erythrocytes
# [7] = Table S1, footnote says lysis of sheep erythrocytes
Compound,MIC (C. difficile ATCC 700057) [µg/mL],MIC (C. difficile 132 (RT027)) [µg/mL],MIC (S. aureus ATCC 29213) [µg/mL],MIC (S. aureus NCTC 10442) [µg/mL],MIC (E. faecalis ATCC 29212) [µg/mL],MIC (S. pneumoniae ATCC 49619) [µg/mL],MIC (E. coli ATCC 25922 [1]) [µg/mL],CC50 [2] [µg/mL],HC50 (human erythrocytes; [6]) [µg/mL],HC50 (human erythrocytes; [7]) [µg/mL],MIC (S. aureus ATCC 43300) [µg/mL],MIC (P. aeruginosa ATCC 27853) [µg/mL],MIC [3] [µg/mL],MIC (A. baumannii ATCC 19606) [µg/mL],MIC (E. coli ATCC 25922 [4]) [µg/mL],MIC (C. albicans ATCC 90028) [µg/mL],MIC [5] [µg/mL],MIC C. neoformans var. grubii ATCC 208821 ([5]; Table S1) [µg/mL]
CC(C)CCc1cnnn1-c1c(OCC(=O)N[C@H](CCCCN)C(=O)N[C@H](CCCNC(=N)N)Cn2cc(C3CCCCC3)nn2)ccc2ccccc12.Cl.Cl [Compound 43],128,128,16,16,64,4,64,> 32,>32,> 32,8,32,> 32,32,32,> 32,4 to 8,8
CC(C)CCc1cn(-c2ccccc2OCC(=O)N[C@H](CCCNC(=N)N)Cn2cc(C3CCCC3)nn2)nn1.Cl [Compound 11],32,64,32,32,32,16,128,> 32,>32,> 32,32,> 32,> 32,> 32,> 32,> 32,32,
CC(C)CCc1cn(-c2ccccc2OCC(=O)N[C@H](CCCNC(=N)N)Cn2cc(Cc3ccccc3)nn2)nn1.Cl [Compound 13],32,64,32,32,32,16,128,> 32,>32,> 32,32,> 32,> 32,> 32,> 32,> 32,32,
CC(C)CCOc1ccccc1-n1nncc1COCC(=O)N[C@H](CCCCN)C(=O)N[C@H](CCCNC(=N)N)Cn1cc(CC2CCCCC2)nn1 [Compound 49],> 32,> 32,32,> 32,> 32,> 32,> 32,> 32,17.1,17.1,32,> 32,> 32,> 32,> 32,> 32,> 32,
CC(C)CCc1cn(-c2ccccc2OCC(=O)N[C@H](CCCNC(=N)N)Cn2cc(C3CCCCC3)nn2)nn1 [Compound 10],32,64,32,32,32,16,128,> 32,>32,> 32,32,> 32,> 32,> 32,> 32,> 32,32,
CC(C)CCOc1ccccc1-n1nncc1COCC(=O)N[C@H](CCCCN)C(=O)N[C@H](CCCNC(=N)N)Cn1cc(Cc2ccccc2)nn1 [Compound 50],> 32,> 32,32,> 32,> 32,> 32,> 32,> 32,19.8,19.8,32,> 32,> 32,> 32,> 32,> 32,> 32,
CC(C)CCc1cn(-c2ccccc2OCC(=O)N[C@H](CCCNC(=N)N)Cn2cc(-c3ccc(F)cc3)nn2)nn1.Cl [Compound 12],32,64,32,32,32,16,128,> 32,>32,> 32,32,> 32,> 32,> 32,> 32,> 32,32,
CC(C)CCc1cnnn1-c1ccccc1OCC(=O)N[C@H](CCCCN)C(=O)N[C@H](CCCNC(=N)N)Cn1cc(CC2CCCCC2)nn1 [Compound 38],128,> 128,128,128,> 128,128,> 128,32,32,32,32,> 32,> 32,> 32,> 32,> 32,16,
CC(C)CCOc1ccccc1-n1nncc1COCC(=O)N[C@H](CCCCN)C(=O)N[C@H](CCCNC(=N)N)Cn1cc(C2CCCCC2)nn1 [Compound 48],> 32,> 32,> 32,> 32,> 32,> 32,> 32,> 32,24.5,24.5,> 32,> 32,> 32,> 32,> 32,> 32,> 32,
